Source: ChEMBL document CHEMBL5727479, “Fused heteroaryl derivatives as orexin receptor antagonists” (2020)

Target: T1, Orexin receptor type 2 (Homo sapiens, UniProt O43614)
T1 sequence (O43614 whole entry): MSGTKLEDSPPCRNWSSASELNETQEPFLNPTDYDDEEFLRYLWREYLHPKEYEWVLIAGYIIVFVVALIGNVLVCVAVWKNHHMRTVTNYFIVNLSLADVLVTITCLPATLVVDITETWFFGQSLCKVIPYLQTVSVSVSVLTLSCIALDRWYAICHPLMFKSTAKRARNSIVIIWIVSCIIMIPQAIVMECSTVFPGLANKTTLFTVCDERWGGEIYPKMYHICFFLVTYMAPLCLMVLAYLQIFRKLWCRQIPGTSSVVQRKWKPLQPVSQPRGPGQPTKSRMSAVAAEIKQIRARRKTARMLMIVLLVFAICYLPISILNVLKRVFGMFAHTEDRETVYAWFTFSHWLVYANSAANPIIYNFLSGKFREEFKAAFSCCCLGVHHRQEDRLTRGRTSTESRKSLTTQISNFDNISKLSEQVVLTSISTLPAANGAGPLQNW
Assay: FLIPR Assay: In a typical experiment the OX1 and OX2 receptor antagonistic activity of the compounds of the present invention was determined in accordance with the following experimental method. For intracellular calcium measurements, Chinese hamster ovary (CHO) cells expressing the rat orexin-1 receptor or the human orexin-2 receptor, are grown in Iscove's modified DMEM containing 2 mM L-glutamine, […], 1% hypoxanthine-thymidine supplement, 100 U/ml penicillin, 100 μg/ml streptomycin and 10% heat-inactivated fetal calf serum (FCS). The cells are seeded at 20,000 cells/well into Becton-Dickinson black 384-well clear bottom sterile plates coated with poly-D-lysine. All reagents are from GIBCO-Invitrogen Corp. The seeded plates are incubated overnight at 37° C. and 5% CO2. Ala-6,12 human orexin-A as the agonist is prepared as a 1 mM stock solution in 1% bovine serum albumin (BSA) and diluted in assay buffer (HBSS containing 20 mM HEPES, 0.1% BSA and 2.5 mM probenecid, pH7.4) for use in the assay at a final concentration of 70 pM. Test compounds are prepared as 10 mM stock solution in DMSO, then diluted in 384-well plates, first in DMSO, then assay buffer. On the day of the assay, cells are washed 3 times with 100 μl assay buffer and then incubated for 60 min (37° C., 5% CO2) in 60 μl assay buffer containing […] Fluo-4AM ester, 0.02% pluronic acid, and 1% BSA.
Type: cell-based

Structure (SMILES): C[C@@H]1CC[C@@H](Sc2nccn3nccc23)CN1C(=O)c1ccccc1-n1nccn1
- IC50: 0.0157 µM
